{
  "source": "patent US20240307415A1",
  "about": "“STEROID COMPOUND, AND PHARMACEUTICAL COMPOSITION THEREOF AND USE THEREOF” (JIANGSU SIMCERE PHARMACEUTICAL CO., LTD., priority 2021, published 2024)",
  "key": {"CYP2C9": {"molecular_target": "CYP2C9 (Homo sapiens (Human), UniProt P11712)", "sequence (P11712 whole entry)": "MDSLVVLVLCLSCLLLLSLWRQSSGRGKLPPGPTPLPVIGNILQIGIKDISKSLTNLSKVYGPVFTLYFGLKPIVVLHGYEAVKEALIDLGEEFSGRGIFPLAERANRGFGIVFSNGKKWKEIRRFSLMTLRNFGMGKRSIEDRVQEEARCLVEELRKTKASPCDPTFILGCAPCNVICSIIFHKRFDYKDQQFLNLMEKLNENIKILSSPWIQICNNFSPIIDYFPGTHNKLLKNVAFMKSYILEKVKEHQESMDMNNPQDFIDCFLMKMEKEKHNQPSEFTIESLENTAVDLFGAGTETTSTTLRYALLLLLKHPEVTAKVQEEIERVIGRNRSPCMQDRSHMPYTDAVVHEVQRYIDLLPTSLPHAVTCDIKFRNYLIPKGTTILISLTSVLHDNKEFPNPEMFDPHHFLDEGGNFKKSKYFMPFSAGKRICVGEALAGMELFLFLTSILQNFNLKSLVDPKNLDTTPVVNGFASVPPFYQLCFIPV", "experiment": "Inhibition of CYP2C9 enzymatic activity in human liver microsomes", "format": "in vitro ADME", "details": "human liver microsome, substrate diclofenac, 5 min", "description": "(§1) The inhibition of CYP2C9 and CYP2D6 activity by the compound of the present invention was determined using the following method.\n(§2) • 1. Human liver microsome (Corning 452117) • 2. NADPH (Solarbio 705Y021) • 3. Positive substrates diclofenac (Sigma SLBV3438) and dextromethorphan (TRC 3-EDO-175-1) • 4. Positive inhibitors sulfaphenazole (D. Ehrenstorfer GmbH 109012) and quinidine (TCI WEODL-RE) • 5. AB Sciex Triple Quad 5500 liquid chromatography-mass spectrometry system\n(§3) • 1. Preparation of 100 mM phosphate-buffered saline (PBS): 7.098 g Na2HPO4 was weighed. 500 mL pure water was added. The mixture was dissolved by sonication to give solution A. 3.400 g KH2PO4 was weighed. 250 mL pure water was added. The mixture was dissolved by sonication to give solution B. The solution A was placed in a stirrer, and the solution B was slowly added until the pH reached 7.4, so that the 100 mM PBS buffer was prepared. • 2. A 10 mM NADPH solution was prepared with a 100 mM PBS buffer. A 10 mM stock solution of the compound of the present invention was diluted with DMSO to give a compound working solution at a concentration of 200×(6000, 2000, 600, 200, 60, 20, and 0 μM). […]\n(§4) The reduction of metabolite production in the treatment groups versus the control group was compared by the peak area ratios of the sample to the internal standard, and the IC50 value was calculated using Excel XLfit 5.3.1.3."}, "[1]": {"molecular_target": "Glucocorticoid Receptor GR (Homo sapiens (Human), UniProt P04150)", "sequence (P04150 whole entry)": "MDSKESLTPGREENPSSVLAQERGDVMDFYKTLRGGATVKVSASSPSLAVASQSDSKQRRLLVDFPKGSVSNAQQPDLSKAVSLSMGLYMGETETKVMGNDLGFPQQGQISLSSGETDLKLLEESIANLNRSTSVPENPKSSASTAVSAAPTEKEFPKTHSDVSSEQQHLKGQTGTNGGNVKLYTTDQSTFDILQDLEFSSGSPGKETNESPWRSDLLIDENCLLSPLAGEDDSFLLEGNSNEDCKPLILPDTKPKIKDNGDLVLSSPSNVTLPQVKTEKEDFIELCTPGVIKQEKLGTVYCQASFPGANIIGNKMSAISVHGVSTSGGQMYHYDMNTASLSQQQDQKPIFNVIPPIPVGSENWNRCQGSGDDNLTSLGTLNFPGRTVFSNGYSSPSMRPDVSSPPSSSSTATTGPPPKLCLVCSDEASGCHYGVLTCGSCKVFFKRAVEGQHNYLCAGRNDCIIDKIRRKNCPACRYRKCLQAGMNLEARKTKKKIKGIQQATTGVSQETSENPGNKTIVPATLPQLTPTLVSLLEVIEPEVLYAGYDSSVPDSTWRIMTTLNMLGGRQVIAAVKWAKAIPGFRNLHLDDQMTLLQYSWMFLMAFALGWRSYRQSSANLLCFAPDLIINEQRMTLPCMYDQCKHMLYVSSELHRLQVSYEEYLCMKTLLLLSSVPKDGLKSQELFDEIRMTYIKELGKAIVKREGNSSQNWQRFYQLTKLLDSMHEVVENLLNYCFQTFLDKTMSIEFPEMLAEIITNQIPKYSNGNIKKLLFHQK", "experiment": "Binding activity to glucocorticoid receptor GR (Polarscreen fluorescence polarization kit)", "details": "GR full length, 2 h", "description": "The binding activity of the compound to GR was determined using the Polarscreen Glucocorticoid Receptor Assay Kit, Red (brand: Thermo, Cat. No: A15898). […] The highest concentration was 100 μM, 8 concentrations in total. […] With the log value of the final concentration of the compound as the X axis and the mP value as the Y axis, data was input into the processing software Graphpad Prism 9, and the EC50 value was calculated by four-parameter fitting"}, "CYP2D6": {"molecular_target": "CYP2D6 (Homo sapiens (Human), UniProt P10635)", "sequence (P10635 whole entry)": "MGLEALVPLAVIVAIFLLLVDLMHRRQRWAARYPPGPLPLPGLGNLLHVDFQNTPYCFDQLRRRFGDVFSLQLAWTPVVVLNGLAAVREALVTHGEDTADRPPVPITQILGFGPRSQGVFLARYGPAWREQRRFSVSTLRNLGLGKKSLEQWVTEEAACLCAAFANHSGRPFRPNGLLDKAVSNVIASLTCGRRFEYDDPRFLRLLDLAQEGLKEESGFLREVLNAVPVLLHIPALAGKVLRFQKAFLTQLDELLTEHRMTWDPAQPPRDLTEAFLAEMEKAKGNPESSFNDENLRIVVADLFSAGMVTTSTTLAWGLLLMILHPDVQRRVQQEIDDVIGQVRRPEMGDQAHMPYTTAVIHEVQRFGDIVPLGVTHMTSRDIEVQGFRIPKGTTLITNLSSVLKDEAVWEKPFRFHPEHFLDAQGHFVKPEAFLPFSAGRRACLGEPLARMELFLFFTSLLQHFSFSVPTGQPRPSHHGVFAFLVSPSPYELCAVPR", "experiment": "Inhibition of CYP2D6 enzymatic activity in human liver microsomes", "format": "in vitro ADME", "details": "human liver microsome, substrate dextromethorphan, 20 min", "description": "as §1, §2, §3, §4"}, "[2]": {"experiment": "Metabolic stability in human liver microsomes", "format": "in vitro ADME", "details": "pH 7.4, 1 μM compound, 0.5 mg/mL microsome, NADPH 1 mM, 37° C., read-out: Human liver microsome stability t1/2", "source_text": "• 1. Human liver microsome (Corning 452117), beagle dog liver microsome (XENOTECH D1000), SD rat liver microsome (XENOTECH R1000), and CD-1 mouse liver microsome (XENOTECH M1000) • 2. Na2HPO4 (Tianjin Guangfu Fine Chemical Research Institute 20180130) • 3. KH2PO4 (Tianjin Guangfu Fine Chemical Research Institute 20180920) • 4. MgCl2 (Tianjin Guangfu Fine Chemical Research Institute 20191216) • 5. NADPH (Solarbio 1216C022) • 6. Positive control compound verapamil (Sigma MKBV4993V) • 7. AB Sciex API4000 liquid chromatography-mass spectrometry system\n• 1. Preparation of 100 mM phosphate-buffered saline (PBS): 7.098 g Na2HPO4 was weighed. 500 mL pure water was added. The mixture was dissolved by sonication to give solution A. 3.400 g KH2PO4 was weighed. 250 mL pure water was added. […]\nAll data were calculated by Microsoft Excel software. The peak area was detected through an extracted ion chromatogram. The in vitro half-life (t1/2) of the compound was determined by linear fitting of the natural logarithm of compound elimination percentage over time.\nIn vitro half-life (t1/2) was calculated by the slope k: […]\nThe in vitro intrinsic clearance (in μL/min/mg protein) was calculated using the following formula: […]"}},
  "data": [
    {"smiles": "C[C@]12C=CC(=O)C=C1CC[C@@H]1[C@@H]2[C@@H](O)C[C@@]2(C)[C@H]1C[C@H]1O[C@@H](c3ccc(Cc4cc(N)c5c(c4)CCO5)cc3)O[C@]12C(=O)CO", "note": "[Compound 009, (6aR,6bS,7S,8aS,8bS,10R,11aR,12aS,12bS)-10-(4-((7-amino-2,3-dihydrobenzofuran-5-yl)methyl)phenyl)-7-hydroxy-8b-(2-hydroxyacetyl)-6a,8a-dimethyl-6a,6b,7,8,8a,8b,11a,12,12a,12b-decahydro-1H-naphtho[2′,1′:4,5]indeno[1,2-d][1,3]dioxolan-4(2H)-one]", "values": [
      {"measurement": "IC50", "setting": "CYP2C9", "result": 7.2, "unit": "µM"},
      {"measurement": "EC50", "setting": "[1]", "result": 0.0202, "unit": "µM"},
      {"measurement": "IC50", "setting": "CYP2D6", "result": "> 50", "unit": "µM"},
      {"measurement": "half-life at 1 μM", "setting": "[2]", "result": 37.8, "unit": "min"}
    ]}
  ]
}
